Test results: PubChem BioAssay (NCI)
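Grown in 96-well plates, cells were treated for 48 hours with each compound at five concentrations. Insufficient inhibition: endpoint recorded as highest concentration tested. The concentration for 50% growth inhibition is given as GI50. Definition used: TGI = concentration required for complete inhibition of growth.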

Tests used:
Assay in all cases: NCI-60 cell line screen, 48 h
786-0 renal = tested on: 786-0 renal
A498 renal = tested on: A498 renal
A549 NSCLC = tested on: A549 NSCLC
ACHN renal = tested on: ACHN renal
BT-549 breast = tested on: BT-549 breast
CAKI-1 renal = tested on: CAKI-1 renal
CCRF-CEM leukemia = tested on: CCRF-CEM leukemia
COLO 205 colon = tested on: COLO 205 colon
DU-145 prostate = tested on: DU-145 prostate
EKVX NSCLC = tested on: EKVX NSCLC
HCC-2998 colon = tested on: HCC-2998 colon
HCT-116 colon = tested on: HCT-116 colon
HCT-15 colon = tested on: HCT-15 colon
HL-60(TB) leukemia = tested on: HL-60(TB) leukemia
HOP-62 NSCLC = tested on: HOP-62 NSCLC
HOP-92 NSCLC = tested on: HOP-92 NSCLC
HS 578T breast = tested on: HS 578T breast
HT29 colon = tested on: HT29 colon
IGROV1 ovarian = tested on: IGROV1 ovarian
K-562 leukemia = tested on: K-562 leukemia
KM12 colon = tested on: KM12 colon
LOX IMVI melanoma = tested on: LOX IMVI melanoma
M14 melanoma = tested on: M14 melanoma
MALME-3M melanoma = tested on: MALME-3M melanoma
MCF7 breast = tested on: MCF7 breast
MDA-MB-231 breast = tested on: MDA-MB-231 breast
MDA-MB-435 = tested on: MDA-MB-435
MOLT-4 leukemia = tested on: MOLT-4 leukemia
NCI-H226 lung = tested on: NCI-H226 lung
NCI-H23 lung = tested on: NCI-H23 lung
NCI-H460 lung = tested on: NCI-H460 lung
NCI-H522 lung = tested on: NCI-H522 lung
NCI/ADR-RES ovarian = tested on: NCI/ADR-RES ovarian
OVCAR-3 ovarian = tested on: OVCAR-3 ovarian
OVCAR-4 ovarian = tested on: OVCAR-4 ovarian
OVCAR-5 ovarian = tested on: OVCAR-5 ovarian
OVCAR-8 ovarian = tested on: OVCAR-8 ovarian
PC-3 prostate = tested on: PC-3 prostate
RPMI-8226 leukemia = tested on: RPMI-8226 leukemia
RXF 393 renal = tested on: RXF 393 renal
SF-268 CNS = tested on: SF-268 CNS
SF-295 CNS = tested on: SF-295 CNS
SF-539 CNS = tested on: SF-539 CNS
SK-MEL-2 melanoma = tested on: SK-MEL-2 melanoma
SK-MEL-28 melanoma = tested on: SK-MEL-28 melanoma
SK-MEL-5 melanoma = tested on: SK-MEL-5 melanoma
SK-OV-3 ovarian = tested on: SK-OV-3 ovarian
SN12C renal = tested on: SN12C renal
SNB-19 CNS = tested on: SNB-19 CNS
SNB-75 CNS = tested on: SNB-75 CNS
SR leukemia = tested on: SR leukemia
SW-620 colon = tested on: SW-620 colon
T-47D breast = tested on: T-47D breast
TK-10 renal = tested on: TK-10 renal
U251 CNS = tested on: U251 CNS
UACC-257 melanoma = tested on: UACC-257 melanoma
UACC-62 melanoma = tested on: UACC-62 melanoma
UO-31 renal = tested on: UO-31 renal
MDA-N = tested on: MDA-N

`NC(CSC(c1ccccc1)(c1ccccc1)c1ccc(F)cc1)C(=O)O` (stereo unspecified) showed a GI50 (786-0 renal) of 2.92 µM, a TGI (786-0 renal) of over 78.9 µM and a GI50 (A498 renal) of 0.344 µM. It also gave a TGI (A498 renal) of 33.8 µM, a GI50 (A549 NSCLC) of 0.35 µM and a TGI (A549 NSCLC) of over 31.7 µM. The GI50 (ACHN renal) was 5.04 µM, the TGI (ACHN renal) was over 100 µM and the GI50 (BT-549 breast) was 1.64 µM. The TGI (BT-549 breast) was 86.8 µM, the GI50 (CAKI-1 renal) was 0.79 µM and the TGI (CAKI-1 renal) was over 26.8 µM. It also gave a GI50 (CCRF-CEM leukemia) of 0.289 µM, a TGI (CCRF-CEM leukemia) of over 100 µM and a GI50 (COLO 205 colon) of 0.231 µM. The TGI (COLO 205 colon) was 0.667 µM, the GI50 (DU-145 prostate) was 0.815 µM and the TGI (DU-145 prostate) was 4.05 µM. The GI50 (EKVX NSCLC) was 0.525 µM, the TGI (EKVX NSCLC) was over 74.2 µM and the GI50 (HCC-2998 colon) was 0.438 µM. The TGI (HCC-2998 colon) was 11.5 µM, the GI50 (HCT-116 colon) was 0.381 µM and the TGI (HCT-116 colon) was over 34.6 µM. For the same compound, the GI50 (HCT-15 colon) was 0.511 µM, the TGI (HCT-15 colon) was over 100 µM and the GI50 (HL-60(TB) leukemia) was 0.268 µM. For the same compound, the TGI (HL-60(TB) leukemia) was 2.47 µM, the GI50 (HOP-62 NSCLC) was 3.04 µM and the TGI (HOP-62 NSCLC) was over 85.6 µM. It also gave a GI50 (HOP-92 NSCLC) of 0.701 µM, a TGI (HOP-92 NSCLC) of 29.3 µM and a GI50 (HS 578T breast) of 0.239 µM. It also gave a TGI (HS 578T breast) of 0.841 µM, a GI50 (HT29 colon) of 0.803 µM and a TGI (HT29 colon) of over 27.8 µM. It also gave a GI50 (IGROV1 ovarian) of 0.856 µM, a TGI (IGROV1 ovarian) of over 100 µM and a GI50 (K-562 leukemia) of 0.356 µM. It also gave a GI50 (KM12 colon) of 0.405 µM, a TGI (KM12 colon) of 20.7 µM and a GI50 (LOX IMVI melanoma) of 0.891 µM. The TGI (LOX IMVI melanoma) was over 100 µM, the GI50 (M14 melanoma) was 0.402 µM and the TGI (M14 melanoma) was over 100 µM. The GI50 (MALME-3M melanoma) was 2.39 µM, the TGI (MALME-3M melanoma) was over 100 µM and the GI50 (MCF7 breast) was 0.344 µM. It also gave a TGI (MCF7 breast) of over 100 µM, a GI50 (MDA-MB-231 breast) of 0.326 µM and a TGI (MDA-MB-231 breast) of 5.5 µM. It also gave a GI50 (MDA-MB-435) of 0.251 µM, a TGI (MDA-MB-435) of 0.654 µM and a GI50 (MOLT-4 leukemia) of 1.37 µM. For the same compound, the TGI (MOLT-4 leukemia) was over 46.9 µM, the GI50 (NCI-H226 lung) was 5.64 µM and the TGI (NCI-H226 lung) was over 76.3 µM. For the same compound, the GI50 (NCI-H23 lung) was 0.657 µM, the TGI (NCI-H23 lung) was over 28.3 µM and the GI50 (NCI-H460 lung) was 0.336 µM. It also gave a TGI (NCI-H460 lung) of 14.9 µM, a GI50 (NCI-H522 lung) of 0.3 µM and a TGI (NCI-H522 lung) of 0.704 µM. For the same compound, the GI50 (NCI/ADR-RES ovarian) was 2.98 µM, the TGI (NCI/ADR-RES ovarian) was 19.2 µM and the GI50 (OVCAR-3 ovarian) was 0.355 µM. The TGI (OVCAR-3 ovarian) was 4.38 µM, the GI50 (OVCAR-4 ovarian) was 9.62 µM and the TGI (OVCAR-4 ovarian) was over 100 µM. The GI50 (OVCAR-5 ovarian) was 4.18 µM, the TGI (OVCAR-5 ovarian) was over 76.5 µM and the GI50 (OVCAR-8 ovarian) was 0.493 µM. It also gave a TGI (OVCAR-8 ovarian) of 41.7 µM, a GI50 (PC-3 prostate) of 0.4 µM and a TGI (PC-3 prostate) of over 35.9 µM. It also gave a GI50 (RPMI-8226 leukemia) of 0.279 µM, a TGI (RPMI-8226 leukemia) of 12.7 µM and a GI50 (RXF 393 renal) of 0.414 µM. For the same compound, the GI50 (SF-268 CNS) was 0.505 µM, the TGI (SF-268 CNS) was 35.1 µM and the GI50 (SF-295 CNS) was 0.346 µM. For the same compound, the TGI (SF-295 CNS) was 13 µM, the GI50 (SF-539 CNS) was 0.285 µM and the TGI (SF-539 CNS) was 0.921 µM. The GI50 (SK-MEL-2 melanoma) was 1.95 µM, the GI50 (SK-MEL-28 melanoma) was 6.04 µM and the TGI (SK-MEL-28 melanoma) was over 100 µM. For the same compound, the GI50 (SK-MEL-5 melanoma) was 0.382 µM, the TGI (SK-MEL-5 melanoma) was over 70.9 µM and the GI50 (SK-OV-3 ovarian) was 0.348 µM. It also gave a TGI (SK-OV-3 ovarian) of 24.1 µM, a GI50 (SN12C renal) of 0.564 µM and a TGI (SN12C renal) of over 70.7 µM. It also gave a GI50 (SNB-19 CNS) of 0.458 µM, a TGI (SNB-19 CNS) of over 47.4 µM and a GI50 (SNB-75 CNS) of 1.74 µM. The GI50 (SR leukemia) was 0.253 µM, the TGI (SR leukemia) was 2.93 µM and the GI50 (SW-620 colon) was 0.43 µM. The TGI (SW-620 colon) was over 100 µM, the GI50 (T-47D breast) was 0.365 µM and the TGI (T-47D breast) was 25.5 µM. The GI50 (TK-10 renal) was 13.3 µM, the TGI (TK-10 renal) was over 100 µM and the GI50 (U251 CNS) was 0.374 µM. The TGI (U251 CNS) was over 60.5 µM, the GI50 (UACC-257 melanoma) was 0.635 µM and the TGI (UACC-257 melanoma) was over 100 µM. It also gave a GI50 (UACC-62 melanoma) of 0.408 µM, a GI50 (UO-31 renal) of 14.1 µM and a TGI (UO-31 renal) of over 100 µM.
`C=CCN(CCN(CC=C)S(=O)(=O)c1ccc(C)cc1)S(=O)(=O)c1ccc(C)cc1` showed a TGI (A498 renal) of over 100 µM, a TGI (A549 NSCLC) of over 100 µM and a TGI (ACHN renal) of over 100 µM. The TGI (CCRF-CEM leukemia) was over 100 µM, the TGI (COLO 205 colon) was over 100 µM and the TGI (DU-145 prostate) was over 100 µM. For the same compound, the TGI (HCC-2998 colon) was over 100 µM, the TGI (HCT-116 colon) was over 100 µM and the TGI (HCT-15 colon) was over 100 µM. It also gave a TGI (HOP-92 NSCLC) of over 100 µM, a TGI (HS 578T breast) of over 100 µM and a TGI (HT29 colon) of over 100 µM. For the same compound, the TGI (K-562 leukemia) was over 100 µM, the TGI (KM12 colon) was over 100 µM and the TGI (LOX IMVI melanoma) was over 100 µM. The TGI (M14 melanoma) was over 100 µM, the TGI (MCF7 breast) was over 100 µM and the TGI (MDA-MB-231 breast) was over 100 µM. The TGI (MDA-MB-435) was over 100 µM, the TGI (MDA-N) was over 100 µM and the TGI (MOLT-4 leukemia) was over 100 µM. For the same compound, the TGI (NCI-H226 lung) was over 100 µM, the TGI (NCI-H23 lung) was over 100 µM and the TGI (NCI-H460 lung) was over 100 µM. It also gave a TGI (NCI-H522 lung) of over 100 µM, a TGI (NCI/ADR-RES ovarian) of over 100 µM and a TGI (OVCAR-3 ovarian) of over 100 µM. It also gave a TGI (OVCAR-4 ovarian) of over 100 µM, a TGI (OVCAR-8 ovarian) of over 100 µM and a TGI (PC-3 prostate) of over 100 µM. For the same compound, the TGI (RXF 393 renal) was over 100 µM, the TGI (SF-268 CNS) was over 100 µM and the TGI (SF-295 CNS) was over 100 µM. The TGI (SK-MEL-28 melanoma) was over 100 µM, the TGI (SK-MEL-5 melanoma) was over 100 µM and the TGI (SN12C renal) was over 100 µM. The TGI (SNB-19 CNS) was over 100 µM, the TGI (SNB-75 CNS) was over 100 µM and the TGI (SR leukemia) was over 100 µM. It also gave a TGI (SW-620 colon) of over 100 µM, a TGI (T-47D breast) of over 100 µM and a TGI (TK-10 renal) of over 100 µM. For the same compound, the TGI (U251 CNS) was over 100 µM, the TGI (UACC-257 melanoma) was over 100 µM and the TGI (UO-31 renal) was over 100 µM.
